Earlier results as cited in PMC7109127 (British Journal of Cancer, 2020).

Assays:
[1] = system: HCC; conditions: first-line HCC; cited from earlier work
[2] = cited from earlier work
[3] = system: metastatic renal cell carcinoma; conditions: TIVO-1; cited from earlier work
[4] = TIVO-1; cited from earlier work
[5] = system: advanced HCC; design: method as in PMID 18650514; conditions: cited from earlier work
[6] = first-line HCC; cited from earlier work
[7] = system: HCC; design: method as in PMID 30665869, PMID 26095784; conditions: selective VEGFR-2 inhibition; cited from earlier work

## COc1cc2nccc(Oc3ccc(NC(=O)NC4CC4)c(Cl)c3)c2cc1C(N)=O [lenvatinib]
[1]
  ORR (RECIST 1.1): 18.8%
  patients progression free at 6 months: 55%

## CNC(=O)c1cc(Oc2ccc(NC(=O)Nc3ccc(Cl)c(C(F)(F)F)c3)cc2)ccn1 [sorafenib]
[2]
  half-life: 25 to 48 h
[3]
  overall response rate (ORR): 23.3%
  progression-free survival (PFS): 9.1 months
[4]
  diarrhoea incidence: 33%
  hypertension incidence: 34%
  palmar–plantar erythrodysesthesia incidence: 54%
[5]
  objective responses: ≤ 2%
[1]
  ORR (RECIST 1.1): 6.5%
  patients progression free at 6 months: 35%
[6]
  Fatigue, all grades: 25%
  Fatigue, grade 3–4: 4%

## ramucirumab
[7]
  objective responses in HCC: does not usually lead to objective responses
